Patent US7767803B2, “Stabilized aptamers to PSMA and their use as prostate cancer therapeutics” (Archemix Corp., priority 2002, dated 2010)

What was measured:
[1] = system: metastatic, androgen independent prostate cancer; conditions: docetaxel in combination with prednisone, given every three weeks; control mitoxantrone and prednisone; cited from earlier work
PSMA NAALADase activity = PSMA NAALADase activity (Homo sapiens, UniProt Q04609); test: NAALADase inhibition assay; format: biochemical; conditions: relative to parent aptamer
Protocol: These point mutant constructs were assessed for activity in terms of inhibition of PSMA NAALADase activity. The NAALADase assay was performed in 96 well format. PSMA aptamers were serially diluted in 1× reaction buffer (40 mM Tris-HCl, pH 7.4, 0.1 mM ZnSO4, 0.1 mg/mL BSA) in a standard 96 well plate to be tested at a final concentration range from 30 pM to 1 μM. The enzyme was prepared by diluting 30 μL of 100 nM PSMA into 8 mL of reaction buffer, and kept cool on ice. The substrate was prepared by adding 19 μl of NAAG [Glutamate-3,4-^3H], 50.8 Ci/mmol, 19.7 μM (Perkin-Elmer, Wellesley, Mass., NET1082) into 2.2 mL of reaction buffer.
Following preparation of all reagents, 4 μl of each serially diluted aptamer was added to a separate 96 well plate (the reaction plate). 76 μl of diluted enzyme was added to the corresponding wells containing aptamer. 80 μl of reaction buffer was added to one column of wells to serve as a background control. The diluted substrate and reaction plate were then moved to a room at 37° C. and allowed to equilibrate for 10 minutes. […]
To separate the cleavage products, […] and Glutamate, from the substrate, an AG 1-×8, 200-400 mesh, formate resin (BioRad, Hercules, Calif., # 140-1454) was used. […] The plate was sealed and read using a Packard Topcount Microplate Scintillation Counter. […]

LNCaP cells (PSMA+) = test: LNCaP FACS assay with fluorescein-labeled aptamers; format: cell-based
From the text: The parent A9 aptamer sequence (SEQ ID NO 168) is predicted by the MFOLD algorithm implemented in the RNAStructure program v. 4.11 to fold into a partially mismatched hairpin that encompasses almost the entire molecule. A series of truncated constructs were designed, in which self-pairing nucleotides from the 5′- and 3′-ends were simultaneously removed, chemically synthesized using conventional solid-phase phosphoramidite-based synthesis, and tested. In the design of some of the truncated A9 aptamers, see e.g. ARC591, additional bases were added to the 3′ and 5′ ends of the truncate, where the bases added to the 5′ end were capable of forming Watson-Crick base pairs with those added to the 3′ end thereby increasing the length of stem structure. Truncated aptamers were 5′-labeled with fluorescein and tested for binding in to LNCaP cells (PSMA+) in the FACS assay described below. PC-3 cells (PSMA−) were used as a control cell line. The sequences of the truncated A9 aptamers designed are listed below in Table 6 below.
To accomplish 5′-fluorescein labeling, aptamers were synthesized with a 5′-amine and then modified post-solid phase synthesis. The required aptamer was dissolved to a concentration of ˜10-50 mg/mL in 25 mM phosphate buffer, pH 7.4. The small molecule, NHS ester of fluorescein, was dissolved to a concentration of 10 mg/mL in DMSO. 1.5 Molar equivalents were added to the aptamer and the solution vortexed for ˜15 seconds. The reaction was allowed to proceed in the dark at room temperature for 1 hour and then a 5 μL aliquot was withdrawn, diluted with water and analyzed by HPLC. Additional equivalents of the small molecule were added until the reaction was complete by HPLC. Excess small molecules were removed by gel filtration.
To prepare aptamers for the FACS assay, PSMA aptamers were serially diluted (0-1 uM) in FACS buffer (1×DPBS w/Ca^++/Mg^++ (Gibco, Carlsbad, Calif.) supplemented with 10 mg/mL salmon sperm DNA & 0.2% Na Azide), in a V-bottom 96 well plate, at the concentrations to be tested. LNCaP and PC-3 cells (ATCC, Manassas, Va.) were harvested with trypsin, and 200,000 cells/well were counted, washed once with 1×DPBS (with Ca^++ and Mg^++) and resuspended in 200 μl of FACS Buffer. The 200 μl of cells in FACS buffer were added to individual wells of a new 96 well plate, pelleted by centrifugation (1300 rpm for 5 minutes), and resuspended in 100 μl of the appropriate concentration of diluted aptamer. FACS buffer, c-PSMA antibody (3C6) (Northwest Biotherapeutics, Bothell, Wash., Cat #: 60-5002) and an irrelevant fluorescein isothiocyanate (“FITC”) mouse IgG1 isotype control antibody (BD Pharmingen, San Diego, Calif., Cat#: 554679) were used as controls. The wells of aptamer/cell mixture were incubated at room temperature for 20-30 minutes. […]

PC-3 cells (PSMA−) = test: FACS assay on control cell line; format: cell-based
From the text: The parent A9 aptamer sequence (SEQ ID NO 168) is predicted by the MFOLD algorithm implemented in the RNAStructure program v. 4.11 to fold into a partially mismatched hairpin that encompasses almost the entire molecule. A series of truncated constructs were designed, in which self-pairing nucleotides from the 5′- and 3′-ends were simultaneously removed, chemically synthesized using conventional solid-phase phosphoramidite-based synthesis, and tested. […]
To prepare aptamers for the FACS assay, PSMA aptamers were serially diluted (0-1 uM) in FACS buffer (1×DPBS w/Ca^++/Mg^++ (Gibco, Carlsbad, Calif.) supplemented with 10 mg/mL salmon sperm DNA & 0.2% Na Azide), in a V-bottom 96 well plate, at the concentrations to be tested. LNCaP and PC-3 cells (ATCC, Manassas, Va.) were harvested with trypsin, and 200,000 cells/well were counted, washed once with 1×DPBS (with Ca^++ and Mg^++) and resuspended in 200 μl of FACS Buffer. […]
Cell samples were analyzed on a FACS Scan machine (Becton Dickinson, San Jose, Calif.) under the following parameters: FSC/SSC, FL-1/FSC, FL-3/FSC. The unstained and/or isotype controls were used to establish gating parameters, and the data was analyzed using Cell Quest Pro software version 5.1.1 (Becton Dickinson Immunocytometry Systems, San Jose, Calif.).

PSMA NAALADase activity, sequence (Q04609 with tags, fused parts or gaps limits assumed): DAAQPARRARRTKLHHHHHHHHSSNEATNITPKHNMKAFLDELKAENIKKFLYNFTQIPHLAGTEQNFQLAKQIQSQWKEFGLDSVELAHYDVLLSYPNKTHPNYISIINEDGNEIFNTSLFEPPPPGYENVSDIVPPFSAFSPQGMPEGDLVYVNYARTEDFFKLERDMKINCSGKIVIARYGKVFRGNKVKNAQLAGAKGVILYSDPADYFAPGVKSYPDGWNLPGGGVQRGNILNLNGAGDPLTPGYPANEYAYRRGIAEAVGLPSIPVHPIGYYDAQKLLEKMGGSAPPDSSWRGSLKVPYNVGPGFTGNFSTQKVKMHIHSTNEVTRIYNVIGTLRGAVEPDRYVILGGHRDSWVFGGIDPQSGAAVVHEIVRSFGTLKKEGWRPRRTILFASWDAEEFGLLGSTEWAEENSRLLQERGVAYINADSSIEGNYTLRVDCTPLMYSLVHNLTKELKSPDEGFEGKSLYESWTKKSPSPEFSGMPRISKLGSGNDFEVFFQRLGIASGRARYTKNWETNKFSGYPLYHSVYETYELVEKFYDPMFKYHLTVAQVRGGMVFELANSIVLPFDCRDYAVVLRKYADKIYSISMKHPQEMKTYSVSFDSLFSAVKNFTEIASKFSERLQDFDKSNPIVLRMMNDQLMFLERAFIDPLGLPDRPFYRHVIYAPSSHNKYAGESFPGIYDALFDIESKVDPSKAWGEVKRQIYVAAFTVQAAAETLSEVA

Molecule	survival advantage over the control group [1]	NAALADase inhibition activity (in words) (PSMA NAALADase activity)	binding to LNCaP (PSMA+) cells by FACS (in words) (LNCaP cells (PSMA+))	binding to PC-3 (PSMA−) cells by FACS (in words) (PC-3 cells (PSMA−))
CC(=O)O[C@@]12CO[C@@H]1C[C@H](O)[C@@]1(C)C(=O)[C@H](O)C3=C(C)[C@@H](OC(=O)[C@H](O)[C@@H](NC(=O)OC(C)(C)C)c4ccccc4)C[C@@](O)([C@@H](OC(=O)c4ccccc4)[C@H]21)C3(C)C [Taxotere, docetaxel]	approximately 2.5 months			
GGAGGACCGAAAAAGACCUGACUUCUAUACUAAGUCUACGUUCCUCCA (2'-fluoro pyrimidines, further chemistry not given here) [ARC591, 48-nt minimer of A9, 2′-OH purines, 2′-fluoro pyrimidines]		retained full functional activity	retained full functional activity	
GGGAGGACGAUGCGGACCGAAAAAGACCUGAfCfUfUfCfUAfUAfCfUAAGfUfCfUAf CGfUfUfCfCfCAGAfCGAfCfUfCGfCfCfCGA (nucleic acid, listed as RNA, chemistry not fully specified, existing PSMA specific aptamer of rRfY composition, described in U.S. Ser. No. 09/978,969) GGGAGGACGAUGCGGACCGAAAAAGACCUGACUUCUAUACUAAGUCUACGUUCCCAGACGACUCGCCCGA			binding to LNCaP (PSMA+) cells	not to PC-3 (PSMA−) cells
